The record followed here is ChEMBL document CHEMBL2406944, “Development of stapled short helical peptides capable of inhibiting vitamin D receptor (VDR)-coactivator interactions” (Bioorg Med Chem Lett, 2013).

The structures appear in SMILES notation. Starred links: 1 amine or outer side, 2 acyl side, 3 side chain; linkers in the order of their positions; H or OH if unused. Positions of bridges follow the written chain, without caps; N, C: chain ends. Non-standard residues stand in square brackets, D forms with d. Residues, ends and D or L forms follow the SMILES beside them. hSer = N[C@@H](CCO)C(=O)O; X1 = C(CC[*:2])C[*:1]; Aib = CC(C)(N)C(=O)O

As a reminder, the IC50 is the concentration needed to halve the response being measured. Lower therefore signals greater potency.

The test has as its target T1, Vitamin D3 receptor (Homo sapiens, UniProt P11473).
T1 sequence (P11473 whole entry): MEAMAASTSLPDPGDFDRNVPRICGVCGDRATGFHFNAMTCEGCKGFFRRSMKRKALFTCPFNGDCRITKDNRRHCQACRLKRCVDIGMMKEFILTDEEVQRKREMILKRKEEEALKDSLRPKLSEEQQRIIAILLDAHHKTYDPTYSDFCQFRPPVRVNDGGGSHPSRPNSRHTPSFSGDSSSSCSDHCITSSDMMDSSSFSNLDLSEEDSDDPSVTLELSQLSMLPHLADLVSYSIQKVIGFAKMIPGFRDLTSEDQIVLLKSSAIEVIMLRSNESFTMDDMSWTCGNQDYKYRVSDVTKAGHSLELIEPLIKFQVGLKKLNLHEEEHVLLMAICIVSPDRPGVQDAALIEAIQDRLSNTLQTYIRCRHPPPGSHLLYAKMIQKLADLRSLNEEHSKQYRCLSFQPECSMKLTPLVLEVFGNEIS
Description: Inhibition of human VDR-coactivator interaction.
`CC(C)C[C@@H]1NC(=O)[C@H](CC(C)C)NC(=O)C(C)(C)NC(=O)[C@H](NC(=O)[C@H](CC(C)C)NC(=O)[C@@H](N)CC(C)C)COCCCCOC[C@@H](C(=O)O)NC1=O` came in with an IC50 of 610 µM.
Compound `CC(C)C[C@@H]1NC(=O)[C@H](CC(C)C)NC(=O)C(C)(C)NC(=O)[C@H](NC(=O)[C@H](CC(C)C)NC(=O)[C@@H](N)CC(C)C)COCCCCOC[C@H](C(=O)O)NC1=O` showed an IC50 of 600 µM. The IC50 values of the last two compounds are within 1.5-fold of each other.
To `CC(C)C[C@@H]1NC(=O)[C@H](CC(C)C)NC(=O)C(C)(C)NC(=O)[C@@H](NC(=O)[C@H](CC(C)C)NC(=O)[C@@H](N)CC(C)C)COCCCCOC[C@H](C(=O)O)NC1=O` belongs 430 µM; to `CC(C)C[C@@H]1NC(=O)[C@H](CC(C)C)NC(=O)C(C)(C)NC(=O)[C@@H](NC(=O)[C@H](CC(C)C)NC(=O)[C@@H](N)CC(C)C)COCCCCOC[C@@H](C(=O)O)NC1=O`, 610 µM; to `CC(C)C[C@@H]1NC(=O)[C@H](CC(C)C)NC(=O)C(C)(C)NC(=O)[C@@H](NC(=O)[C@H](CC(C)C)NC(=O)[C@@H](N)CC(C)C)CCOCCCCOC[C@@H](C(=O)O)NC1=O` (H-LL[hSer][Aib]LLS-OH; linker 3-7 via X1), 520 µM.
Take `CC(C)C[C@@H]1NC(=O)[C@H](CC(C)C)NC(=O)C(C)(C)NC(=O)[C@@H](NC(=O)[C@H](CC(C)C)NC(=O)[C@@H](N)CC(C)C)CCOCCCCOCC[C@@H](C(=O)O)NC1=O` (H-LL[hSer][Aib]LL[hSer]-OH; linker 3-7 via X1): the concentration for half-maximal inhibition (IC50) was 220 µM.
With `CC(C)C[C@@H]1NC(=O)[C@H](CC(C)C)NC(=O)C(C)(C)NC(=O)[C@@H](NC(=O)[C@H](CC(C)C)NC(=O)[C@@H](N)CC(C)C)CCOCC(O)C(O)COCC[C@@H](C(=O)O)NC1=O` (mixture of isomers), the IC50 was determined as 3.2 µM.
